Data: DBAASP
≈ marks a conversion by molar mass, not a printed value. Values belong to the molecule of their own block, whether it stands above or below them.

Columns and labels:
Assay in all cases: ≥ marks a high value that may be exact or a test limit, other limits are often not marked, values filed in µg/mL are converted to µM
[1] = system: Escherichia coli ATCC 25922
Escherichia coli K88 = system: Escherichia coli K88
Escherichia coli K99 = system: Escherichia coli K99
Escherichia coli UB1005 = system: Escherichia coli UB1005
[2] = system: Lacticaseibacillus rhamnosus 1.0385
[3] = system: Lacticaseibacillus rhamnosus 1.0911
[4] = system: Lacticaseibacillus rhamnosus 1.0936
[5] = system: Lacticaseibacillus rhamnosus 7469
[6] = system: Lactiplantibacillus plantarum 8014
[7] = system: Pseudomonas aeruginosa ATCC 27853
[8] = system: Salmonella enterica subsp. enterica serovar Pullorum C79-13
[9] = system: Salmonella enterica subsp. enterica serovar Typhimurium ATCC 14028
[10] = system: Salmonella enterica subsp. enterica serovar Typhimurium C77-31
[11] = system: Staphylococcus aureus ATCC 25923
[12] = system: Staphylococcus aureus ATCC 29213
[13] = system: Staphylococcus aureus ATCC 43300
Escherichia coli TOP 10 = system: Escherichia coli TOP 10
[14] = system: Acinetobacter baumannii ATCC 19606
Bacillus megaterium Bm11 = system: Bacillus megaterium Bm11
[15] = system: Candida parapsilosis ATCC 22019
[16] = system: Enterococcus faecalis ATCC 51299
[17] = system: Enterococcus faecium ATCC 19434
[18] = system: Escherichia coli ATCC 35218
[19] = system: Klebsiella pneumoniae ATCC 49472
[20] = system: Klebsiella pneumoniae ATCC BAA-2814
[21] = system: Staphylococcus aureus ATCC 12600
[22] = system: Staphylococcus aureus ATCC BAA-2312
[23] = system: Staphylococcus epidermidis ATCC 12228
Escherichia coli = system: Escherichia coli
[24] = system: Staphylococcus aureus ATCC BAA-1683
Aeromonas salmonicida = system: Aeromonas salmonicida
[25] = system: Pseudomonas aeruginosa K799
[26] = system: Pseudomonas aeruginosa Z61
[27] = system: Salmonella enterica serovar typhimurium MS7953s
[28] = system: Salmonella enterica subsp. enterica serovar Typhimurium ATCC 14028s
[29] = system: Staphylococcus epidermidis C621
Vibrio anguillarum = system: Vibrio anguillarum
[30] = system: Klebsiella pneumoniae ATCC 700603
[31] = system: Klebsiella pneumoniae ATCC BAA-2146
[32] = system: Pseudomonas aeruginosa FADDI-PA070
[33] = system: Staphylococcus aureus NRS 17
[34] = system: Staphylococcus aureus NRS 1
[35] = system: Staphylococcus aureus VRSA10
[36] = system: Staphylococcus aureus VRSA1
[37] = system: Streptococcus pneumoniae ATCC 700677

- MIC [1]: > 64 µM
- MIC (Escherichia coli K88): ≥ 64 µM
- MIC (Escherichia coli K99): ≥ 64 µM
- MIC (Escherichia coli UB1005): ≥ 64 µM
- MIC [2]: ≥ 64 µM
- MIC [3]: ≥ 64 µM
- MIC [4]: ≥ 64 µM
- MIC [5]: ≥ 64 µM
- MIC [7]: > 64 µM
- MIC [8]: ≥ 64 µM
- MIC [9]: > 64 µM
- MIC [10]: ≥ 64 µM
- MIC [11]: > 64 µM
- MIC [12]: > 64 µM
- MIC [13]: > 64 µM
Compound: C[C@@H]1NC(=O)[C@@H](N)CSSC[C@@H](C(=O)O)NC(=O)[C@H](Cc2ccccc2)NC(=O)[C@H](Cc2ccc(O)cc2)NC(=O)[C@H](CO)NC1=O [CASYFC]
- MIC [6]: ≥ 64 µM

- MIC (Escherichia coli TOP 10): ≥ 57.6 µM
Compound: CC[C@H](C)[C@H](NC(=O)[C@H](CCC(=O)O)NC(=O)[C@H](CCCCN)NC(=O)[C@H](CCC(=O)O)NC(=O)[C@@H](NC(=O)[C@H](CO)NC(=O)[C@H](CCC(N)=O)NC(=O)[C@@H](NC(=O)[C@@H]1CCCN1C(=O)[C@H](CC(=O)O)NC(=O)[C@H](C)NC(=O)[C@H](CCSC)NC(=O)[C@@H](NC(=O)[C@H](Cc1ccccc1)NC(=O)[C@@H](N)CC(C)C)[C@@H](C)O)[C@@H](C)CC)[C@@H](C)CC)C(N)=O [LFTMADPIQSIEKEI]

- MIC [14]: 6.25 µM (≈ 12.2 µg/mL)
- MIC (Bacillus megaterium Bm11): 0.78 µM (≈ 1.52 µg/mL)
- MIC [15]: 25 µM (≈ 48.6 µg/mL)
- MIC [16]: ≥ 250 µM
- MIC [17]: ≥ 62.5 µM
- MIC [1]: 6.25 µM (≈ 12.2 µg/mL)
- MIC [18]: 31.2 µM (≈ 60.8 µg/mL)
- MIC [19]: ≥ 62.5 µM
- MIC [20]: ≥ 62.5 µM
- MIC [7]: 62.5 µM (≈ 122 µg/mL)
- MIC [9]: 62.5 µM (≈ 122 µg/mL)
- MIC [21]: 31.2 µM (≈ 60.8 µg/mL)
- MIC [11]: 12.5 µM (≈ 24.3 µg/mL)
- MIC [22]: 31.2 µM (≈ 60.8 µg/mL)
- MIC [23]: 6.25 µM (≈ 12.2 µg/mL)
Compound: CC[C@H](C)[C@H](NC(=O)CN)C(=O)N[C@@H](Cc1ccccc1)C(=O)N[C@@H](CC(=O)O)C(=O)N[C@H](C(=O)N[C@@H](CC(C)C)C(=O)N[C@@H](CCCCN)C(=O)N[C@@H](CC(N)=O)C(=O)N[C@@H](CC(C)C)C(=O)N[C@@H](C)C(=O)N[C@@H](CCCCN)C(=O)NCC(=O)N[C@H](C(=O)N[C@H](C(=O)N[C@H](C(=O)N[C@@H](CO)C(=O)N[C@@H](CC(C)C)C(=O)N[C@@H](C)C(=O)N[C@@H](CO)C(N)=O)[C@@H](C)O)[C@@H](C)CC)C(C)C)C(C)C [GIFDVLKNLAKGVITSLAS]

- MIC (Escherichia coli): 351 µM (≈ 500 µg/mL)
- MIC [11]: 351 µM (≈ 500 µg/mL)
- MIC [24]: ≥ 351 µM
Compound: CC(C)C[C@H](NC(=O)[C@H](CC(C)C)NC(=O)[C@H](CCCN=C(N)N)NC(=O)[C@H](Cc1c[nH]c2ccccc12)NC(=O)[C@H](Cc1c[nH]c2ccccc12)NC(=O)[C@@H](N)CCCCN)C(=O)N[C@@H](Cc1cnc[nH]1)C(=O)N[C@@H](CCCCN)C(=O)N[C@@H](CCCCN)C(=O)N[C@@H](CCC(N)=O)C(N)=O [KWWRLLHKKQ]

- MIC (Aeromonas salmonicida): 10.9 µM (≈ 32 µg/mL)
- MIC [25]: 21.7 µM (≈ 64 µg/mL)
- MIC [26]: 21.7 µM (≈ 64 µg/mL)
- MIC [27]: 2.72 µM (≈ 8 µg/mL)
- MIC [28]: 21.7 µM (≈ 64 µg/mL)
- MIC [29]: 21.7 µM (≈ 64 µg/mL)
- MIC (Vibrio anguillarum): 21.7 µM (≈ 64 µg/mL)
Compound: CC[C@H](C)[C@H](NC(=O)[C@@H](N)CO)C(=O)NCC(=O)N[C@@H](CO)C(=O)N[C@@H](C)C(=O)N[C@@H](Cc1ccccc1)C(=O)N[C@@H](CCCCN)C(=O)N[C@@H](CCCCN)C(=O)N[C@@H](C)C(=O)N[C@@H](C)C(=O)N[C@@H](Cc1cnc[nH]1)C(=O)N[C@H](C(=O)NCC(=O)N[C@@H](CCCCN)C(=O)N[C@@H](Cc1cnc[nH]1)C(=O)N[C@H](C(=O)NCC(=O)N[C@@H](CCCCN)C(=O)N[C@@H](C)C(=O)N[C@@H](C)C(=O)N[C@@H](CC(C)C)C(=O)NCC(=O)N[C@@H](C)C(=O)N[C@@H](C)C(=O)N[C@@H](C)C(=O)N[C@@H](CCCN=C(N)N)C(=O)N[C@@H](CCCN=C(N)N)C(=O)N[C@@H](CCCN=C(N)N)C(=O)N[C@@H](CCCCN)C(=O)O)C(C)C)C(C)C [SIGSAFKKAAHVGKHVGKAALGAAARRRK]

- MIC [14]: 0.566 µM (≈ 1.77 µg/mL)
- MIC [1]: 4.53 µM (≈ 14.1 µg/mL)
- MIC [30]: 9.05 µM (≈ 28.3 µg/mL)
- MIC [31]: 2.26 µM (≈ 7.06 µg/mL)
- MIC [7]: > 12.8 µM
- MIC [32]: 12.8 µM (≈ 40 µg/mL)
- MIC [13]: > 12.8 µM
- MIC [33]: 12.8 µM (≈ 40 µg/mL)
- MIC [34]: 12.8 µM (≈ 40 µg/mL)
- MIC [35]: 12.8 µM (≈ 40 µg/mL)
- MIC [36]: 12.8 µM (≈ 40 µg/mL)
- MIC [37]: 12.8 µM (≈ 40 µg/mL)
Compound: CC[C@H](C)[C@H](N)C(=O)N[C@@H](CC(=O)O)C(=O)N[C@@H](Cc1c[nH]c2ccccc12)C(=O)N[C@@H](CCCCN)C(=O)N[C@@H](CCCCN)C(=O)N[C@H](C(=O)N[C@@H](CC(=O)O)C(=O)N[C@@H](Cc1c[nH]c2ccccc12)C(=O)N[C@@H](CCCCN)C(=O)N[C@@H](CCCCN)C(=O)N[C@H](C(=O)N[C@@H](CO)C(=O)N[C@@H](CCCCN)C(=O)N[C@@H](CCCCN)C(=O)N[C@H](C(=O)N[C@@H](CO)C(=O)N[C@@H](CCCCN)C(=O)N[C@H](C(=O)N[C@@H](CCSC)C(=O)N[C@@H](CC(C)C)C(=O)N[C@@H](CCCCN)C(=O)N[C@@H](C)C(=O)N[C@@H](CO)C(=O)N[C@@H](CCCCN)C(=O)N[C@@H](Cc1ccccc1)C(=O)N[C@@H](CC(C)C)C(N)=O)C(C)C)[C@@H](C)O)C(C)C)C(C)C [IDWKKVDWKKVSKKTSKVMLKASKFL]
